# Results reported in PubChem BioAssay (NCI).
#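 Five concentrations, 48 hours, 96-well plates. Abbreviation: GI50, concentration required for 50% inhibition of growth. TGI is the concentration that stops growth completely.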
# How the values were obtained:
# Assay in all cases: growth of human tumour cells (NCI), 48 h
# [1] = tested on: 786-0 renal
# [2] = tested on: A498 renal
# [3] = tested on: A549 NSCLC
# [4] = tested on: ACHN renal
# [5] = tested on: BT-549 breast
# [6] = tested on: CAKI-1 renal
# [7] = tested on: CCRF-CEM leukemia
# [8] = tested on: COLO 205 colon
# [9] = tested on: DU-145 prostate
# [10] = tested on: EKVX NSCLC
# [11] = tested on: HCC-2998 colon
# [12] = tested on: HCT-116 colon
# [13] = tested on: HCT-15 colon
# [14] = tested on: HL-60(TB) leukemia
# [15] = tested on: HOP-62 NSCLC
# [16] = tested on: HOP-92 NSCLC
# [17] = tested on: HS 578T breast
# [18] = tested on: HT29 colon
# [19] = tested on: IGROV1 ovarian
# [20] = tested on: K-562 leukemia
# [21] = tested on: KM12 colon
# [22] = tested on: LOX IMVI melanoma
# [23] = tested on: M14 melanoma
# [24] = tested on: MALME-3M melanoma
# [25] = tested on: MCF7 breast
# [26] = tested on: MDA-MB-231 breast
# [27] = tested on: MDA-MB-435
# [28] = tested on: MOLT-4 leukemia
# [29] = tested on: NCI-H226 lung
structure (smiles),measurement,setting,value
CN1CCN(Cc2ccc(NC(=O)c3cncc(C#Cc4cnc5ccc(N)nn45)c3)cc2C(F)(F)F)CC1,GI50,[1],2080 nM
same,TGI,[1],6220 nM
same,GI50,[2],2720 nM
same,TGI,[2],10600 nM
same,GI50,[3],1620 nM
same,TGI,[3],5890 nM
same,GI50,[4],2440 nM
same,TGI,[4],8150 nM
same,GI50,[5],2070 nM
same,TGI,[5],6050 nM
same,GI50,[6],1570 nM
same,TGI,[6],5830 nM
same,GI50,[7],240 nM
same,TGI,[7],50000 nM
same,GI50,[8],348 nM
same,TGI,[8],1350 nM
same,GI50,[9],1390 nM
same,TGI,[9],5730 nM
same,GI50,[10],2630 nM
same,TGI,[10],13300 nM
same,GI50,[11],1180 nM
same,TGI,[11],5650 nM
same,GI50,[12],233 nM
same,TGI,[12],2890 nM
same,GI50,[13],1990 nM
same,TGI,[13],12200 nM
same,GI50,[14],306 nM
same,TGI,[14],1550 nM
same,GI50,[15],1020 nM
same,TGI,[15],3710 nM
same,GI50,[16],138 nM
same,TGI,[16],538 nM
same,GI50,[17],804 nM
same,TGI,[17],5300 nM
same,GI50,[18],444 nM
same,TGI,[18],2280 nM
same,GI50,[19],1070 nM
same,TGI,[19],4640 nM
same,GI50,[20],5 nM
same,TGI,[20],18100 nM
same,GI50,[21],8.16 nM
same,TGI,[21],1070 nM
same,GI50,[22],510 nM
same,TGI,[22],1280 nM
same,GI50,[23],690 nM
same,TGI,[23],1570 nM
same,GI50,[24],496 nM
same,TGI,[24],1520 nM
same,GI50,[25],284 nM
same,TGI,[25],2370 nM
same,GI50,[26],352 nM
same,TGI,[26],2610 nM
same,GI50,[27],674 nM
same,TGI,[27],5780 nM
same,GI50,[28],369 nM
same,TGI,[28],5810 nM
same,GI50,[29],214 nM
same,TGI,[29],6120 nM
